Tests used:
[1] = Octanol-water apparent partition coefficient, log D of the compound at pH 7.4; type: physicochemical; details: for logD: read-out: LogD7.4
Rattus norvegicus [2] = type: toxicity, organism-based; details: in vivo, po, 168 h
Rattus norvegicus [3] = assay: Toxicity in rat assessed as mortality at 384 umol/kg, po qd for 10 days; type: organism-based; details: in vivo, 240 h
Rattus norvegicus [4] = assay: Iron excretion in noniron-overloaded bile duct cannulated Sprague-Dawley rat bile at 300 umol/kg, po after 48 hrs relative to control; type: functional
Rattus norvegicus [5] = assay: Iron clearing effect in noniron-overloaded bile duct cannulated Sprague-Dawley rat assessed as maximum iron clearance time at 300 umol/kg, po; type: functional
Sapajus apella [6] = assay: Iron excretion in iron-overloaded Cebus apella feces at 75 umol/kg, po after 48 hrs by flame absorption spectroscopy analysis relative to control; type: functional
Rattus norvegicus [7] = assay: Iron clearing effect in noniron-overloaded bile duct cannulated Sprague-Dawley rat at 300 umol/kg, po after 48 hrs; type: functional
Rattus norvegicus [8] = assay: Iron excretion in noniron-overloaded bile duct cannulated Sprague-Dawley rat urine at 300 umol/kg, po after 48 hrs relative to control; type: functional
Sapajus apella [9] = assay: Iron excretion in iron-overloaded Cebus apella urine at 75 umol/kg, po after 48 hrs by flame absorption spectroscopy analysis relative to control; type: functional
Sapajus apella [10] = assay: Iron clearing effect in iron-overloaded Cebus apella at 75 umol/kg, po after 48 hrs by flame absorption spectroscopy analysis; type: functional
Sapajus apella [11] = assay: Iron excretion in iron-overloaded Cebus apella urine at 75 umol/kg, sc after 48 hrs by flame absorption spectroscopy analysis relative to control; type: functional
Sapajus apella [12] = assay: Iron excretion in iron-overloaded Cebus apella feces at 75 umol/kg, sc after 48 hrs by flame absorption spectroscopy analysis relative to control; type: functional
Rattus norvegicus [13] = assay: Iron clearing effect in noniron-overloaded bile duct cannulated Sprague-Dawley rat assessed as maximum iron clearance time at 150 umol/kg, po; type: functional
Rattus norvegicus [14] = assay: Iron excretion in noniron-overloaded bile duct cannulated Sprague-Dawley rat urine at 150 umol/kg, po after 24 hrs relative to control; type: functional
Rattus norvegicus [15] = assay: Iron clearing effect in noniron-overloaded bile duct cannulated Sprague-Dawley rat at 150 umol/kg, po after 24 hrs; type: functional
Rattus norvegicus [16] = assay: Iron excretion in noniron-overloaded bile duct cannulated Sprague-Dawley rat bile at 150 umol/kg, po after 24 hrs relative to control; type: functional
Rattus norvegicus [17] = type: toxicity, organism-based, Urine; details: in vivo, po, 168 h
Sapajus apella [18] = assay: Iron excretion in iron-overloaded Cebus apella urine at 150 umol/kg, po after 48 hrs by flame absorption spectroscopy analysis relative to control; type: functional
Sapajus apella [19] = assay: Iron excretion in iron-overloaded Cebus apella feces at 150 umol/kg, po after 48 hrs by flame absorption spectroscopy analysis relative to control; type: functional
Sapajus apella [20] = assay: Iron clearing effect in iron-overloaded Cebus apella at 150 umol/kg, po after 48 hrs by flame absorption spectroscopy analysis; type: functional
Rattus norvegicus [21] = type: toxicity, organism-based, Urine; details: in vivo, po, 168 h; remark: listed apart in the source
Rattus norvegicus [22] = type: toxicity, organism-based, Serum; details: in vivo, po, 168 h
Rattus norvegicus [23] = type: toxicity, organism-based, Blood; details: in vivo, po, 168 h

Row | Compound | Activity (Rattus norvegicus [2]) | Time (Rattus norvegicus [5]) [h] | Activity (Sapajus apella [6]) [%] | Activity (Sapajus apella [9]) [%] | Activity (Sapajus apella [10]) [%] | logD [1] | other results
1 | COCCOCCOc1ccc(C2=N[C@@](C)(C(=O)[O-])CS2)c(O)c1.[Na+] | Non-toxic | 12 | 83 | 17 | 28.7 |  | LogD7.4 [1]: -0.89; Activity (Rattus norvegicus [3]): Non-toxic; Activity (Rattus norvegicus [4]): 97%; Activity (Rattus norvegicus [7]): 26.7%; Activity (Rattus norvegicus [8]): 3%
2 | COCCOCCOc1ccnc(C2=N[C@@](C)(C(=O)[O-])CS2)c1O.[Na+] | Non-toxic | 6 | 40 | 60 |  | -1.38 | Activity (Sapajus apella [11]): 36%; Activity (Sapajus apella [12]): 64%
3 | COCCOCCOc1cnc(C2=N[C@@](C)(C(=O)[O-])CS2)c(O)c1.[Na+] | Non-toxic | 6 | 63 | 37 |  | -1.59 | 
4 | COCCOCCOc1cccc(C2=N[C@@](C)(C(=O)[O-])CS2)c1O.[Na+] |  | 6 | 86 | 14 | 22.5 | -0.96 | Activity (Rattus norvegicus [4]): 99%; Activity (Rattus norvegicus [7]): 15.1%; Activity (Rattus norvegicus [8]): 1%
5 | C[C@]1(C(=O)[O-])CSC(c2ncc(O)cc2O)=N1.[Na+] | Non-toxic | 6 | 58 | 42 | 10 | -1.68 | 
6 | C[C@]1(C(=O)[O-])CSC(c2ccccc2O)=N1.[Na+] |  |  | 76 | 24 | 21.5 |  | Time (Rattus norvegicus [13]): 6 h; Activity (Rattus norvegicus [14]): 0%; Activity (Rattus norvegicus [15]): 2.7%; Activity (Rattus norvegicus [16]): 100%
7 | C[C@]1(C(=O)[O-])CSC(c2ccc(O)cc2O)=N1.[Na+] [DEFERITRIN SODIUM] | Non-toxic | 3 |  |  |  |  | Activity (Rattus norvegicus [17]): 69 ng/kg/day; Activity (Sapajus apella [18]): 12%; Activity (Sapajus apella [19]): 88%; Activity (Sapajus apella [20]): 16.8%
8 | C[C@]1(C(=O)[O-])CSC(c2ncccc2O)=N1.[Na+] [DESFERRITHIOCIN SODIUM] | Toxic |  |  |  |  |  | Time (Rattus norvegicus [13]): 3 h; Activity (Rattus norvegicus [17]): 1528 ng/kg/day; Activity (Rattus norvegicus [14]): 7%; Activity (Rattus norvegicus [15]): 5.5%; Activity (Rattus norvegicus [21]): 192 ng/kg/day; Activity (Sapajus apella [18]): 22%; Activity (Rattus norvegicus [22]): 5.1 mg/dL; Activity (Sapajus apella [19]): 78%; Activity (Sapajus apella [20]): 16.1%; Activity (Rattus norvegicus [16]): 93%; Activity (Rattus norvegicus [23]): 139 mg/dL

— ChEMBL document CHEMBL2163198, “Substituent effects on desferrithiocin and desferrithiocin analogue iron-clearing and toxicity profiles” (J Med Chem, 2012)
